Article PMC12864594, “Photoactivated Proximity Protein Labeling Reveals Enhanced Tumor Retention of a D‐Peptide‐Ruthenium Prodrug Conjugate” (Advanced Healthcare Materials, 2025)
Where “and” joins values, the source holds several entries; their conditions need not be identical. Equal entries are not always repeated. Peptide text beside a SMILES is read from it.

Experiments:
A549 cells [1] = experiment: Intracellular ROS generation, CellROX Deep Red probe, FACS; assay type: cell-based, human; conditions: for Normalized intracellular ROS generation, light: light 515 nm, 13.1 J cm^−2
Method: To determine the pathway by which the compounds cause cell death, a ROS generation assay was performed for Δ and Λ isomers of [1]Cl2–[3]Cl2 in A549 cells using the unspecific molecular probe CellROX Deep Red. This assay was used to quantify the formation of singlet oxygen, superoxide, and […], both in the dark or upon green light irradiation (515 nm, 13.1 J cm^−2). The cells treated with medium, Tert‐butyl hydroperoxide (tBHP), cisplatin, and Rose Bengal were used as vehicle control, positive control, negative control, and green light‐activated PDT type II control, respectively. These experiments were conducted in normoxic and hypoxic cells at the same time. The mean fluorescence intensity in each cell, which was quantified by FACS and normalized to that of controls, is a relative measure of intracellular ROS production (see Table 3; raw data in Figures S30 and S31, Supporting Information). At the end of the assay, the absolute ratio R, defined as the ratio of the ROS probe emission intensity in the light group, divided by that in the dark group, was used as quantification of light‐induced ROS production.
The generation of ROS (reactive oxygen species) in A549 cells was measured using the ROS deep red fluorescence indicator (Abcam, ab186029). A549 (1 × 10^5, 1 mL) were seeded into 12‐well plates (Sarstedt, 83.3921) and incubated for 24 h in the dark under normoxia. The cells were then treated with [1]Cl2 ‐[3]Cl2, cisplatin, Rose Bengal or [Ru(Ph2phen)2Cl2] (15 µM). There were two groups for each drug (dark and light). After 24 h of incubation under normoxia, the plate was washed with cold PBS once, and cells were trypsinized, harvested, and then resuspended in 150 µL PBS. The cell suspension from the centrifuge tubes was transferred to 96‐round bottom well plates (Thermo Scientific, 268200), and the plates were kept in the dark or irradiated with […] light (dose = 13.1 J cm^−2). After which, the Cellular ROS Deep Red dye was added with 1000× dilution, and the cells were further stained for 1 h. The levels of intracellular ROS were then determined using the CytoFLEX flow cytometer using the APC‐A (638 nm excitation, 660/10 nm emission) channel. All flow cytometry data were processed using FlowLogic 8.5 software.

A549 cells [2] = experiment: 2D cytotoxicity, sulforhodamine B (SRB) end point assay; assay type: cell-based, human; conditions: A549 2D normoxic cells, 72 h, without washing, no irradiation
Method: Considering the potential of the six diastereomers for PACT, and their better targeting of αvβ3 in hypoxic A549 cells, compared with PC‐3, their cytotoxicity was determined in 2D monolayers of normoxic and hypoxic A549 cells using a sulforhodamine B (SRB) cell quantification end point assay^[ [66] ^] in the dark (light dose 0 J cm^−2) or upon green light activation (light dose 13.1 J cm^−2). Half‐maximal effective concentrations (EC50 in µM) were measured as an evaluation of the toxicity of the compounds. The photoindex values (PI), defined as EC50,dark/ EC50,light, were calculated to quantify the extent of light activation in cancer cells. […]
A549 cells (5000) or PC‐3 cells (6000) were seeded in 96‐well plates (Sarstedt, 83.3924), each well contained 100 µL Opti‐MEM (Gibco complete medium 11058‐021, supplemented with 2.5% v/v fetal calf serum (FCS), 0.2% v/v penicillin/streptomycin (P/S), and 1% v/v glutamine) either in normoxic (21% O2) or hypoxic (1.0% O2) incubator. […] Finally, 100 µL of cold trichloroacetic acid (10% w/v) was added to each well to fix the cells, and all plates were then transferred to a 4 °C refrigerator for 48 h before performing an SRB cell quantification endpoint assay (see below).^[ [66] ^] […] Errors were calculated utilizing 95% confidence intervals (±CI in µM). […]

[3] = mixture of the Δ‐ and Λ‐ isomers; cited from earlier work
Text: Table 1 Photochemical properties of isolated Δ and Λ diastereoisomers of [1]Cl2–[3]Cl2 including molar extinction coefficients (ε, in M ^−1 cm^−1) at absorption maximum wavelength (405 nm), photosubstitution quantum yields for step 1 (ΦPS1) and step 2 (ΦPS2) in H2O or 50% MeCN in H2O under green light irradiation, and singlet oxygen quantum yields of each complexes in CD3OD. | column: Complex || To evaluate the efficiency of these ruthenium‐peptide conjugates [1]Cl2–[3]Cl2 as potential PDT type II agents, the quantum yields (ΦΔ) of singlet oxygen generation were further measured by direct spectroscopic detection of ^1O2 emission at 1275 nm in air‐saturated CD3OD (Table 1; Figure S21, Supporting Information). The ΦΔ value for a mixture of the Δ‐ and Λ‐ isomers of [1]Cl2 was already reported in our previous work (0.013 ± 0.005)^[ [51] ^]; within experimental errors, the values found for the isolated isomers were identical (0.008 ± 0.005 and 0.009 ± 0.005), and, like for the isomers of [ ...

[4] = A549, hypoxia (1%), 15 µM, 24 h
[5] = A549, hypoxia (1%), 15 µM, 24 h, dark, normalized to dark control
[6] = A549, hypoxia (1%), 15 µM, 24 h, normalized to dark control
[7] = A549, normoxia (21%), 15 µM, 24 h
[8] = A549, normoxia (21%), 15 µM, 24 h, dark, mean fluorescence normalized to dark control
[9] = A549, normoxia (21%), 15 µM, 24 h, normalized to dark control

With `CSCC[C@@H](NC(=O)[C@@H](CC(=O)O)NC(=O)CNC(=O)[C@@H](CCCNC(=N)N)NC(=O)[C@@H](CCSC)NC(C)=O)C(N)=O` the molar extinction coefficient ε × 10^4 at 405 nm (× 10^4 M^−1 cm^−1) was 1.16 and 1.27.

In the case of `CSCC[C@H](NC(=O)[C@@H](CC(=O)O)NC(=O)CNC(=O)[C@@H](CCCNC(=N)N)NC(=O)[C@H](CCSC)NC(C)=O)C(N)=O` (HELM PEPTIDE1{[ac].M.[dR].G.[dD].M.[am]}$$$$V2.0), the molar extinction coefficient ε × 10^4 at 405 nm (× 10^4 M^−1 cm^−1) is reported as 1.12 and 1.05.

In the case of `N.N.[Cl][Pt][Cl]` [Cisplatin, cisplatin], the “R (ROS probe emission light group / dark group)” value (A549 cells [1]; [4]) is reported as 2.00, the “Normalized intracellular ROS generation, dark” value (A549 cells [1]; [5]) is reported as 1.00 and the “Normalized intracellular ROS generation, light” value (A549 cells [1]; [6]) is reported as 1.99. The “R (ROS probe emission light group / dark group)” value (A549 cells [1]; [7]) was 1.74, the “Normalized intracellular ROS generation, dark” value (A549 cells [1]; [8]) was 1.28 and the “Normalized intracellular ROS generation, light” value (A549 cells [1]; [9]) was 2.23.

In the case of `O=C([O-])c1c(Cl)c(Cl)c(Cl)c(Cl)c1-c1c2cc(I)c(=O)c(I)c-2oc2c(I)c([O-])c(I)cc12.[Na+].[Na+]` [Rose Bengal], the “R (ROS probe emission light group / dark group)” value (A549 cells [1]; [4]) is reported as 3.05, the “Normalized intracellular ROS generation, dark” value (A549 cells [1]; [5]) is reported as 0.84 and the “Normalized intracellular ROS generation, light” value (A549 cells [1]; [6]) is reported as 2.56. The “R (ROS probe emission light group / dark group)” value (A549 cells [1]; [7]) was 5.2 and 5.21, the “Normalized intracellular ROS generation, dark” value (A549 cells [1]; [8]) was 0.90 and the “Normalized intracellular ROS generation, light” value (A549 cells [1]; [9]) was 4.71.

In the case of `F[P-](F)(F)(F)(F)F.F[P-](F)(F)(F)(F)F.[Ru+2].c1ccc(-c2ccnc3c2ccc2c(-c4ccccc4)ccnc23)cc1.c1ccc(-c2ccnc3c2ccc2c(-c4ccccc4)ccnc23)cc1` [[Ru(Ph2phen)2(H2O)2](PF6)2], the EC50 (A549 cells [2]) is reported as > 100 µM.

With `CC(C)(C)OO` [tBHP, Tert‐butyl hydroperoxide] the “Normalized intracellular ROS generation, dark” value (A549 cells [1]; A549, hypoxia (1%), positive control 250 µM, 1 h) was 4.36 and the “Normalized intracellular ROS generation, dark” value (A549 cells [1]; A549, normoxia (21%), positive control 250 µM, 1 h) was 14.00.

For Ac-MRGDM-NH2, the molar extinction coefficient ε × 10^4 at 405 nm (× 10^4 M^−1 cm^−1) was 1.18 and 1.21.

For “[Ru(Ph2phen)2(Ac‐MRGDM‐NH2)]Cl2 (sidechain bridge or staple) [[1]Cl2]”, the “ΦΔ (1O2) singlet oxygen quantum yield” value [3] is listed as 0.013 ± 0.005.
